One block for each molecule: values may come before it.
Experiments:
[1] = design: method as in Johannessen, 2004; Patsalos, 2008; Lee, 2016; details: patients with epilepsy; ref Johannessen, 2004; Patsalos, 2008; Lee, 2016; cited from earlier work
BCRP [2] = biological target: T1, BCRP (Homo sapiens, UniProt Q9UNQ0); details: previous data; cited from earlier work
T1 sequence (Q9UNQ0 1-655): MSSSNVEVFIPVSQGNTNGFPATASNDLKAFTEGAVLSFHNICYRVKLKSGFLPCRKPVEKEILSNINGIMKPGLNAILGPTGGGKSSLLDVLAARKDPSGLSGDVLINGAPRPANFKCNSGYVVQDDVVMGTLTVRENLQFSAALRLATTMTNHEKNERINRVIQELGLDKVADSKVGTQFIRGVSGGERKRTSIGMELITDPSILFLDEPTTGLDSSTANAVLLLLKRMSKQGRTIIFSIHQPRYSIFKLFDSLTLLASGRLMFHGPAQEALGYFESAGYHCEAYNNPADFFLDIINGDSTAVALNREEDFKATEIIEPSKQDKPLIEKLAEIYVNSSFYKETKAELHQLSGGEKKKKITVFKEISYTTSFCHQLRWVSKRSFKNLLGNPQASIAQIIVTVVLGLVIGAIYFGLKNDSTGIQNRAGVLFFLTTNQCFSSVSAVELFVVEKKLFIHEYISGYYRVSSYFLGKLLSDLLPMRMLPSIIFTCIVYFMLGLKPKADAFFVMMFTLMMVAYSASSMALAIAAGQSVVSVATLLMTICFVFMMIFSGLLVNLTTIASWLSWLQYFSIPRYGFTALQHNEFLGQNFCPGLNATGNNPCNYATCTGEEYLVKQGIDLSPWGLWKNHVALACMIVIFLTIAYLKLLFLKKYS

BCRP [3] = biological target: T1, BCRP; assay: bidirectional transport assay across hCMEC/D3 cell monolayer with or without Ko143; details: for transport by BCRP (conclusion of bidirectional transport assay): ER ≥ 1.5 and significantly reduced by Ko143; for Papp A→B at 2 h, 40 μM / Papp A→B at 2 h, 80 μM / Papp B→A at 2 h, 40 μM / Papp B→A at 2 h, 80 μM / efflux ratio at 2 h, 40 μM / efflux ratio at 2 h, 80 μM / Papp A→B at 2 h, 300 µM / Papp A→B at 2 h, 600 μM / Papp B→A at 2 h, 300 µM / Papp B→A at 2 h, 600 μM / efflux ratio at 2 h / efflux ratio at 2 h, 300 µM / efflux ratio at 2 h, 600 μM: human
Protocol: For transport assays, hCMEC/D3 cells were seeded on collagen type I‐coated Transwell inserts (polycarbonate 12‐well, pore size […]) (cat. no. CLS3460; Corning, NY, USA) at 80% confluency and cultured as described in section 2.5. In brief, the drug was dissolved in Hanks’ balanced salt solution supplemented with 10 mM HEPES, 1 mM Na‐Pyruvate, pH 7.4 at 37°C (transport buffer). Initially, both sides of the chamber were washed with 1X PBS and the assay was performed with pre‐warmed transport buffer. 0.5 ml or 1.5 ml of the drug solution, with or without BCRP‐specific inhibitor Ko143 (1 μM) was added to either the apical side or basolateral side of the monolayer, respectively, and fresh transport buffer was added to the opposite side. Aliquots of 100 μl samples were taken from the opposite sides every 30 min for 2 h, and the same amount of fresh transport buffer was added to the same chamber after each sampling. […] Concentrations of ASMs were evaluated by HPLC or LC/MS. Apparent permeability (Papp) is defined as the transport rate of ASM and efflux ratio (ER) was calculated as the ratio of Papp in the basolateral‐to‐apical (Papp(B→A)) direction to the Papp in the apical‐to‐basolateral (Papp(A→B)) direction. The samples were stored at −20°C until analysis. […] Fluorescence detection of lucifer yellow (excitation at 430 nm, and emission at 535 nm) was carried out with Infinite 200 PRO NanoQuant (Tecan, Zurich, Switzerland). […] All transport assays were performed in triplicate.
The calculation for apparent permeability coefficient, Papp, was performed as described before. Papp=dQr/dt/A×C0 where dQr/dt is the cumulative amount in the receiver side vs time in μM/s
A is the area of the cell monolayer
C0 is the initial concentration of the dosing solution (μM).
And, Efflux ratio=Papp(B−to−A)/Papp(A−to−B)

BCRP [4] = biological target: T1, BCRP; design: host or cells: MCF-7 cells overexpressing BCRP; details: previous study; cited from earlier work

Efflux ratio (ER), hCMEC/D3 without inhibitor Ko143 (BCRP [3]; 80 μM, hCMEC/D3 monolayer): 1.53
transport by BCRP (conclusion of bidirectional transport assay) (BCRP [3]; hCMEC/D3 monolayer): not
Papp A→B at 2 h, 40 μM (BCRP [3]; pH 7.4): 2.12 ×10⁻⁶ cm/s
Papp A→B at 2 h, 80 μM (BCRP [3]; pH 7.4): 3.09 ×10⁻⁶ cm/s
Papp B→A at 2 h, 40 μM (BCRP [3]; pH 7.4): 2.59 ×10⁻⁶ cm/s
Papp B→A at 2 h, 80 μM (BCRP [3]; pH 7.4): 3.36 ×10⁻⁶ cm/s
efflux ratio at 2 h, 40 μM (BCRP [3]; pH 7.4, Efflux ratio (ER), hCMEC/D3 without inhibitor Ko143, 40 μM, hCMEC/D3 monolayer): 1.28
efflux ratio at 2 h, 80 μM (BCRP [3]; pH 7.4, Efflux ratio (ER), hCMEC/D3 without inhibitor Ko143, 80 μM, hCMEC/D3 monolayer): 1.5
Papp A→B at 2 h, 40 μM (BCRP [3]; pH 7.4, with Ko143 1 μM): 2.71 ×10⁻⁶ cm/s
Papp A→B at 2 h, 80 μM (BCRP [3]; pH 7.4, with Ko143 1 μM): 2.03 ×10⁻⁶ cm/s
Papp B→A at 2 h, 40 μM (BCRP [3]; pH 7.4, with Ko143 1 μM): 3.07 ×10⁻⁶ cm/s
Papp B→A at 2 h, 80 μM (BCRP [3]; pH 7.4, with Ko143 1 μM): 2.12 ×10⁻⁶ cm/s
efflux ratio at 2 h, 40 μM (BCRP [3]; pH 7.4, with Ko143 1 μM, Efflux ratio (ER), hCMEC/D3 with inhibitor Ko143, 40 μM, hCMEC/D3 monolayer, 1 μM Ko143): 1.17
efflux ratio at 2 h, 80 μM (BCRP [3]; pH 7.4, with Ko143 1 μM, Efflux ratio (ER), hCMEC/D3 with inhibitor Ko143, 80 μM, hCMEC/D3 monolayer, 1 μM Ko143): 1.31
Compound: O=C1NC(=O)C(c2ccccc2)(c2ccccc2)N1 [PHT, phenytoin]
Therapeutic plasma concentration range [1]: 40 to 80 µM
BPZ accumulation in competitive substrate efflux assay in hCMEC/D3 cells (BCRP [2]): increased BPZ accumulation
stimulation of BCRP ATPase activity (BCRP [4]): stimulated

transport by BCRP (conclusion of bidirectional transport assay) (BCRP [3]; hCMEC/D3 monolayer): transports
Papp A→B at 2 h, 300 µM (BCRP [3]; pH 7.4): 0.19 ×10⁻⁶ cm/s
Papp A→B at 2 h, 600 μM (BCRP [3]; pH 7.4): 0.34 ×10⁻⁶ cm/s
Papp B→A at 2 h, 300 µM (BCRP [3]; pH 7.4): 0.31 ×10⁻⁶ cm/s
Papp B→A at 2 h, 600 μM (BCRP [3]; pH 7.4): 0.64 ×10⁻⁶ cm/s
efflux ratio at 2 h (BCRP [3]; pH 7.4, Efflux ratio (ER) without inhibitor, at all the tested concentrations, hCMEC/D3 monolayer): > 1.5
efflux ratio at 2 h, 300 µM (BCRP [3]; pH 7.4, Efflux ratio (ER), hCMEC/D3 without inhibitor Ko143, 300 μM, hCMEC/D3 monolayer): > 1.5
efflux ratio at 2 h, 600 μM (BCRP [3]; pH 7.4, Efflux ratio (ER), hCMEC/D3 without inhibitor Ko143, 600 μM, hCMEC/D3 monolayer): > 1.5
Papp A→B at 2 h, 300 µM (BCRP [3]; pH 7.4, with Ko143 1 μM): 0.21 ×10⁻⁶ cm/s
Papp A→B at 2 h, 600 μM (BCRP [3]; pH 7.4, with Ko143 1 μM): 0.33 ×10⁻⁶ cm/s
Papp B→A at 2 h, 300 µM (BCRP [3]; pH 7.4, with Ko143 1 μM): 0.24 ×10⁻⁶ cm/s
Papp B→A at 2 h, 600 μM (BCRP [3]; pH 7.4, with Ko143 1 μM): 0.37 ×10⁻⁶ cm/s
efflux ratio at 2 h (BCRP [3]; pH 7.4, with Ko143 1 µM, Efflux ratio (ER) in the presence of Ko143, at all the tested concentrations, hCMEC/D3 monolayer, 1 μM Ko143): ~1
efflux ratio at 2 h, 300 µM (BCRP [3]; pH 7.4, with Ko143 1 µM, Efflux ratio (ER), hCMEC/D3 with inhibitor Ko143, 300 μM, hCMEC/D3 monolayer, 1 μM Ko143): 1.1
efflux ratio at 2 h, 600 μM (BCRP [3]; pH 7.4, with Ko143 1 μM, Efflux ratio (ER), hCMEC/D3 with inhibitor Ko143, 600 μM, hCMEC/D3 monolayer, 1 μM Ko143): 1.14
Compound: CCCC(CCC)C(=O)O [VPA, valproic acid]
Therapeutic plasma concentration range [1]: 300 to 600 µM
BPZ accumulation in competitive substrate efflux assay in hCMEC/D3 cells (BCRP [2]): increased BPZ accumulation
stimulation of BCRP ATPase activity (BCRP [4]): stimulated
